From ChEMBL document CHEMBL1151122, “Diterpenoids from the roots of Salvia hypargeia” (1988)
Converted amounts (≈) assume the structure as drawn. The source made the active and inactive calls. The calls are words filed in the database; no cut-off is given here.

How the values were obtained:
Bacillus subtilis [1] = test: Antibacterial activity against Bacillus subtilis ATCC 6633 by disk diffusion method; type: functional
Staphylococcus aureus [2] = test: Antibacterial activity against Staphylococcus aureus ATCC 6538 by disk diffusion method; type: functional
Klebsiella pneumoniae [3] = test: Antibacterial activity against Klebsiella pneumoniae UC 57 by disk diffusion method; type: functional
[4] = system: Staphylococcus epidermidis; test: Antibacterial activity against Staphylococcus epidermidis ATCC 12228 by disk diffusion method; type: functional
Bacillus subtilis [5] = test: Antibacterial activity against Bacillus subtilis ATCC 6633 by tube dilution method; type: functional
Pseudomonas aeruginosa [6] = test: Antibacterial activity against Pseudomonas aeruginosa ATCC 1539 by disk diffusion method; type: functional
Staphylococcus aureus [7] = test: Antibacterial activity against Staphylococcus aureus ATCC 6538; type: functional, organism-based
Klebsiella pneumoniae [8] = test: Antibacterial activity against Klebsiella pneumoniae UC 57; type: functional, organism-based
Bacillus subtilis [9] = test: Antibacterial activity against Bacillus subtilis ATCC 6633; type: functional, organism-based
[10] = system: Staphylococcus epidermidis; test: Antibacterial activity against Staphylococcus epidermidis ATCC 12228; type: functional, organism-based
Pseudomonas aeruginosa [11] = test: Antibacterial activity against Pseudomonas aeruginosa ATCC 1539; type: functional, organism-based
Staphylococcus aureus [12] = test: Antibacterial activity against Staphylococcus aureus ATCC 6538 by tube dilution method; type: functional
Klebsiella pneumoniae [13] = test: Antibacterial activity against Klebsiella pneumoniae UC 57 by tube dilution method; type: functional
[14] = system: Staphylococcus epidermidis; test: Antibacterial activity against Staphylococcus epidermidis ATCC 12228 by tube dilution method; type: functional
[15] = system: Mycobacterium tuberculosis; test: Antitubercular activity against Mycobacterium tuberculosis H37Rv at 250 ug/ml; type: functional, organism-based
Pseudomonas aeruginosa [16] = test: Antibacterial activity against Pseudomonas aeruginosa ATCC 1539 by tube dilution method; type: functional

Structure (SMILES): CC(C)c1cc2c(cc1O)[C@@]1(C)CCC(=O)C(C)(C)[C@@H]1C=C2 [HYPARGENIN D]
- inhibition zone (IZ) (Bacillus subtilis [1]): >7 mm
- inhibition zone (IZ) (Staphylococcus aureus [2]): >7 mm
- inhibition zone (IZ) (Klebsiella pneumoniae [3]): >7 mm
- inhibition zone (IZ) [4]: >7 mm
- MIC (Bacillus subtilis [5]): 62.5 µg/mL (≈ 209 µM)
- inhibition zone (IZ) (Pseudomonas aeruginosa [6]): >7 mm

Structure (SMILES): CC(C)c1ccc2c(c1O)C[C@@H](O)[C@H]1C(C)(C)CCC(=O)[C@]21C
- Activity (Staphylococcus aureus [7]): inactive
- Activity (Klebsiella pneumoniae [8]): inactive
- Activity (Bacillus subtilis [9]): inactive
- Activity [10]: inactive
- Activity (Pseudomonas aeruginosa [11]): inactive

Structure (SMILES): CC(C)c1cc2c(cc1O)[C@@]1(C)C(=O)CCC(C)(C)[C@@H]1[C@H](O)C2=O [HYPARGENIN A]
- MIC (Staphylococcus aureus [12]): 15.6 µg/mL (≈ 47.2 µM)
- inhibition zone (IZ) (Bacillus subtilis [1]): >7 mm
- inhibition zone (IZ) (Staphylococcus aureus [2]): >7 mm
- MIC (Klebsiella pneumoniae [13]): 15.6 µg/mL (≈ 47.2 µM)
- inhibition zone (IZ) (Klebsiella pneumoniae [3]): >7 mm
- inhibition zone (IZ) [4]: >7 mm
- inhibition zone (IZ) (Pseudomonas aeruginosa [6]): >7 mm

Structure (SMILES): CC(C)c1cc2c(cc1O)[C@@]1(C)CCCC(C)(C)[C@@H]1C(=O)C2=O [HYPARGENIN C]
- MIC (Staphylococcus aureus [12]): 125 µg/mL (≈ 398 µM)
- inhibition zone (IZ) (Bacillus subtilis [1]): >7 mm
- inhibition zone (IZ) (Staphylococcus aureus [2]): >7 mm
- inhibition zone (IZ) (Klebsiella pneumoniae [3]): >7 mm
- inhibition zone (IZ) [4]: >7 mm
- MIC (Bacillus subtilis [5]): 15.6 µg/mL (≈ 49.6 µM)
- inhibition zone (IZ) (Pseudomonas aeruginosa [6]): >7 mm

Structure (SMILES): CC(C)C1=C(O)C(=O)C2=C(C=CC3(O)C(C)(C)CCC[C@]23C)C1=O (stereo partly specified) [HYPARGENIN F]
- MIC (Staphylococcus aureus [12]): 125 µg/mL (≈ 378 µM)
- inhibition zone (IZ) (Bacillus subtilis [1]): >7 mm
- MIC [14]: 62.5 µg/mL (≈ 189 µM)
- inhibition zone (IZ) (Staphylococcus aureus [2]): >7 mm
- inhibition zone (IZ) (Klebsiella pneumoniae [3]): >7 mm
- Activity [15]: Active
- MIC (Pseudomonas aeruginosa [16]): 125 µg/mL (≈ 378 µM)
- inhibition zone (IZ) [4]: >7 mm
- inhibition zone (IZ) (Pseudomonas aeruginosa [6]): >7 mm

Structure (SMILES): CC(C)(O)c1cc2c(cc1O)[C@@]1(C)CCCC(C)(C)[C@@H]1CC2=O [HYPARGENIN B]
- MIC (Staphylococcus aureus [12]): 125 µg/mL (≈ 395 µM)
- inhibition zone (IZ) (Bacillus subtilis [1]): >7 mm
- inhibition zone (IZ) (Staphylococcus aureus [2]): >7 mm
- MIC (Klebsiella pneumoniae [13]): 125 µg/mL (≈ 395 µM)
- inhibition zone (IZ) (Klebsiella pneumoniae [3]): >7 mm
- inhibition zone (IZ) [4]: >7 mm
- inhibition zone (IZ) (Pseudomonas aeruginosa [6]): >7 mm
